# Assay results as given in US5364944A, “Substituted benzoylbenzene-, biphenyl- and 2-oxazole- alkanoic acid compounds” (American Home Products Corporation, priority 1993, dated 1994).
# What was measured:
# [1] = tested on: biosynthesis of LTB4 by isolated human neutrophils; experiment: Inhibition of LTB4 biosynthesis by isolated human neutrophils (PMN); assay type: cell-based; settings: A23187 stimulated human PMN; for inhibition at 2.5 µM: Neutrophil, read-out: % Inhibition of LTB4 Synthesis
# Protocol: The ability of the compounds of the invention to inhibit the biosynthesis of LTB4 by isolated human neutrophils is evaluated in the following assay, which is carried out in this manner.
# A leukocyte enriched blood sample obtained from a healthy donor is procured by leukophoresis using a Haemonetics model 30+ blood processor (Biological Specialties, Inc., Lansdale, Pa.). The top "platelet-rich" layer is removed after a low speed spin (35×g, 15 min, 25° C.) of the sample. The remaining cell suspension is centrigued (400×g, 10 min, 25° C.) to sediment the remaining cells. The supernatant is discarded and the cell pellet resuspended in 120 ml HBSS (without Ca^++ /Mg++). The cell suspension is subjected to ficoll-hypaque sedimentation (Histopaque 1077, 400×g, 30 min, 25° C.). Contaminating erythrocytes are lysed by hypotonic shock (1 min). The cells are then washed once with 40 ml of HBSS and resuspended with HBS S (without Ca^++ /Mg^++) to a concentration of 2.5×10^7 cells/ml for further use. Greater than 95% purity is obtained as assessed by microscopic examination.
# One ml of human PMN (2.5×10^7 cells/ml) is incubated with vehicle or drugs (10 μl) for 10 min at 30° C. After preincubation, an equal volume of HBSS (1 ml) containing 2.4 mM CaCl2, 6 μM calcium ionophore A23187 and 50 μCi[^3 H]-acetate is then incubated at 30° C. for 15 minutes. An aliquot (100 μl) of the reaction mixture is taken out and mixed with 900 μl of 15% ethanol. LTB4 is extracted by using solid phase extraction on reverse phase C18 columns to remove excess [^3 H]-acetate and PAF. The C18 column is prewashed once with 2 ml of ethanol and water. The sample aliquot is acidified with 0.1 N HCl to pH3 before applying to the column. The column is then washed with 2 ml of water followed by 2 ml of 15% ethanol and 2 ml of petroleum ether to remove excess labeled acetate. The sample is eluted with 2 ml of ethyl acetate. The collected samples are dried with nitrogen and resuspended in 0.5 ml RIA buffer. The quantity of LTB4 in the sample is obtained from RIA determination.
# Data presented are the mean +/- s.d. of the values relative to control A23187 stimulated cells for each experiment assayed in triplicate. Percent inhibition when used is calculated as:
# % Inhibition=100-[(×.div.Control )×100]
# Dose response analysis is performed by non-linear regression analysis for curve fitting and IC50 determination.
# [2] = tested on: fluid and cellular phases of an inflammatory response; experiment: Reverse passive Arthus pleurisy assay, pleural inflammation (fluid exudation, cellular influx); assay type: in vivo, rat (male Lewis); settings: for ED30 Fluid Exudation: p.o., pleural inflammation; for ED30 Fluid Exudation / % Inh Cellular Influx: standard drugs; for % Inh Cellular Influx: 8 mg/kg p.o.
# Protocol: (§1) The compounds of the invention are further tested in the reverse passive Arthus pleurisy assay to evaluate their effectiveness in inflammatory mediator release and/or the fluid and cellular phases of an inflammatory response.
# (§2) This assay is carried out as follows:
# (§3) A reverse passive Arthus reaction is induced in the pleural cavity of male Lewis rats (150-200 g; fasted overnight prior to use) by the intravenous administration of bovine serum albumin (BSA; 4 mg/0.2 ml) followed 30 minutes later by the injection of rabbit anti-BSA (1 mg/0.2 ml; lyophilized IgG fraction; Organon Teknika, West Chester, Pa.) into the right pleural space under halothane anesthesia. Drugs or vehicle (0.5% Tween-80) control are administered orally in a volume of 1 ml/100 g body weight at 1 hour prior to the anti-BSA. Animals are sacrificed at either the time of peak eicosanoid production (i.e. 5 minutes after anti-BSA for immunoreactive TxB2 10 minutes for immunoreactive LTB4, 20 minutes for immunoreactive LTC4) or at the time of peak neutrophil infiltration (4 hours after anti-BSA) by CO2 inhalation. The pleural cavity is then exposed, the fluid exudate removed by gentle vacuum aspiration and the volume of exudate is recorded. For the determination of cellular infiltration, the pleural cavity is rinsed with 3 ml of 0.1% EDTA in sterile saline, and the recovered wash is pooled with the exudate. Cell number is determined on a model ZBI Coulter counter. For determination of eicosanoid production, undiluted pleural exudate is microfuged and the supernatant is extracted with ethanol (8-10 times volume). Extracts are either stored at -20° C., or are evaporated to dryness under a stream of N2 and reconstituted in radioimmunoassay (RIA) buffer.
# (§4) Inflammatory cells are expressed as 10^6 cells/ml, pleural exudate is expressed as ml of fluid, and the amount of eicosanoids in the pleural cavity is expressed as ng/ml of exudate. Mean ±S.E.M. is determined for each group. Percent inhibition (% I) of cell number, exudate volume and eicosanoid production is calculated for vehicle-treated control groups, and the responses in drug-treated rats are then expressed as the mean % I of the control. […] Exp. Ther., 96, 99-113 (1949).
# TxB2 = experiment: Reverse passive Arthus pleurisy assay, inflammatory mediator release: TxB2; assay type: in vivo, rat (male Lewis); settings: standard drugs; for ED50 TxB2: p.o., inflammatory mediator release, 5 min
# Protocol: as §1, §2
# as §3, with “For the determination of cellular infiltration, the pleural cavity is rinsed with 3 ml of 0.1% EDTA in sterile saline, and the recovered wash is pooled with the exudate.” left out, “For determination of eicosanoid production, undiluted pleural exudate is microfuged and the supernatant is extracted with ethanol (8-10 times volume). Extracts are either stored at -20° C., or are evaporated to dryness under a stream of N2 and reconstituted in radioimmunoassay (RIA) buffer.” left out
# Eicosanoids are quantitated by RIA according to the procedure specified by the RIA kit manufacturer (Advanced Magnetics, Cambridge, Mass.). […] Antibody-bound labeled eicosanoid is quantitated by counting in a liquid scintillation counter, and is correlated to concentration by a standard curve.
# Inflammatory cells are expressed as 10^6 cells/ml, pleural exudate is expressed as ml of fluid, and the amount of eicosanoids in the pleural cavity is expressed as ng/ml of exudate. Mean ±S.E.M. is determined for each group. Percent inhibition (% I) of cell number, exudate volume and eicosanoid production is calculated for vehicle-treated control groups, and the responses in drug-treated rats are then expressed as the mean % I of the control. […]
# LTB4 = experiment: Reverse passive Arthus pleurisy assay, inflammatory mediator release: LTB4; assay type: in vivo, rat (male Lewis); settings: standard drugs; for % Inh LTB4: 4 mg/kg p.o.
# Protocol: as §1, §2
# as §3, with “Drugs or vehicle (0.5% Tween-80) control are administered orally in a volume of 1 ml/100 g body weight at 1 hour prior to the anti-BSA.” left out
# Eicosanoids are quantitated by RIA according to the procedure specified by the RIA kit manufacturer (Advanced Magnetics, Cambridge, Mass.). Briefly, 100 μl of ^3 H-labeled eicosanoid and 100 μl of specific antibody are sequentially added to 100 μl of extracted pleural exudate in BGG -phosphate buffer which contains 0.01 M phosphate, 0.1% bovine gamma globulin and 0.1% sodium azide at pH 7.0. Antibody-bound eicosanoid is separated from unbound eicosanoid by the addition of 750 μl of dextran (0.4%)-coated charcoal (0.4% Norit A) containing 0.1% sodium azide. The mixture is centrifuged at 2000 RPM at 5° C. for 15 minutes to pellet the charcoal and adsorbed unbound eicosanoid. Antibody-bound labeled eicosanoid is quantitated by counting in a liquid scintillation counter, and is correlated to concentration by a standard curve.
# as §4
# [3] = tested on: 5-lipoxygenase in human whole blood; experiment: Inhibition of 5-lipoxygenase in human whole blood (LTB4); assay type: cell-based
# Protocol: The assay of this Example measures the ability of the compounds tested to inhibit 5-lipoxygenase in human whole blood.
# as §2
# Blood is obtained in 50-100 ml quantities from male donors. White blood cell counts and differentials are made. Two ml of blood are placed in a 15 ml polypropylene test tube. Compounds are solubilized in dimethylsulfoxide and diluted 1:10 in 10% bovine serum albumin in phosphate buffered saline, pH 7.4 resulting in a final dimethylsulfoxide concentration of 0.1% in the blood. Then, compounds are added to the blood in a shaking water bath at 37° C. for 10 minutes prior to the addition of 30 μM calcium ionophore (A23187; Sigma). After ionophore administration, whole blood samples are mixed and incubated for 20 minutes at […] in a shaking water bath. Incubation is terminated by placing samples in an ice bath and immediately adding ethylene glycol-bis-(β-aminoethyl ether)-N,N,N',N'-tetraacetic acid (10 mM). Samples are mixed and centrifuged at 1200×g for 15 minutes at 4° C. Preparation of samples for evaluation by RIA or ELISA is carried out by the following protocol. Plasma is removed from sample tubes, placed in 15 ml polypropylene test tubes containing 8 ml methanol, and then vortexed to precipitate protein. Samples are stored at -70° C. overnight. The next day, samples are centrifuged at 200×g for 15 minutes at 4° C. to pellet the precipitate. Samples are dried in a Savant speed vac concentrator, reconstituted to original volume with ice cold RIA or ELISA buffer, and stored at -70° C. until assayed. The assay for eicosanoids (LTB4, TxB2, and PGE2) is performed as described by the manufacturer of the [^3 H]-RIA kit or ELISA kit (LTB4 -Amersham, TxB2 and PGE2 - Caymen Chemical).
# The total eicosanoid level in 2 ml of blood is calculated and reported as ng/10^6 neutrophils. […] Drug effects are expressed as percent change from control values.
# Compounds tested in vitro are solubilized in dimethylsulfoxide and diluted 1:10 in 10% bovine serum albumin in phosphate buffer saline resulting in a final dimethylsulfoxide concentration of 0.1% in the blood.
# [4] = tested on: synthesis of the arachidonic acid cyclooxygenase oxidation product PGE2 (rat PMN); experiment: Inhibition of cyclooxygenase product PGE2 synthesis by rat PMN; assay type: cell-based; settings: negative values denote a potentiation of cyclooxygenase
# Protocol: In this assay, the procedure of Example 41 is carried out as described. However, in order to determine cyclooxygenase activity, the samples are cochromatographed with authentic reference [^3 H]-PGE2.
structure (smiles),measurement,setting,value
"O=C(O)Cc1ccc(-c2ccc(OCc3nc4ccccc4s3)cc2)cc1 [Example 12, 4'-(Benzothiazolylmethoxyl)-4-diphenylacetic acid]",% Inhibition of LTB4 Synthesis,[1]; at 2.5 μM,Inactive
C[C@@H]1C[C@H]2[C@@H]3CCC4=CC(=O)C=C[C@]4(C)[C@@]3(F)[C@@H](O)C[C@]2(C)[C@@]1(O)C(=O)CO [Dexamethasone],ED30 Fluid Exudation,[2],0.05 mg/kg
"C[C@H](C(=O)O)c1ccc2cc(OCc3ccc4ccccc4n3)ccc2c1.NC(CO)(CO)CO [Wy-50,295-A]",% Inh TxB2,TxB2; 75 mg/kg p.o.,0%
COc1ccc2cc([C@H](C)C(=O)O)ccc2c1 [Naproxen],% Inh LTB4,LTB4,0%
same,ED50 TxB2,TxB2,0.24 mg/kg
same,% Inh Cellular Influx,[2],29%
same,ED30 Fluid Exudation,[2],3.9 mg/kg
CC(C(=O)N(C)O)c1ccc(-c2ccc(OCc3nc4ccccc4n3C)cc2)cc1 (stereo not shown) [Example 23],IC50,[3],11.9 µM
same,% Inhibition of LTB4,[3]; at 25 μM,32%
same,inhibition at 2.5 µM,[1],99%
"CN(O)C(=O)Cc1ccc(-c2ccc(OCc3nc4ccccc4s3)cc2)cc1 [Example 13, 4'-(Benzothiazolylmethoxy)-4-diphenyl-N-hydroxy-N-methyl-acetamide]",inhibition at 2.5 µM,[1],98.9%
"CC(c1cc2ccccc2s1)N(O)C(N)=O (stereo not shown) [A-64,077, reference compound]",inhibition at 2.5 µM,[1],75.8%
"O=C(O)Cc1cccc(C(=O)c2ccc(OCc3ccc4ccccc4n3)cc2)c1 [Example 3, 3-[4-(2-Quinolinylmethoxy)benzoyl]benzene acetic acid]",inhibition at 0.5 µM,[4]; at 0.5 μM,-8%
same,inhibition at 10 µM,[4]; at 10 μM,8%
COc1ccc2c(c1)c(CC(=O)O)c(C)n2C(=O)c1ccc(Cl)cc1 [Indomethacin],% Inh LTB4,LTB4,12%
same,% Inh Cellular Influx,[2],19%
same,ED30,"[2]; Rattus norvegicus, po, read-out: ED30 Fluid Exudation",2.5 mg/kg
"CN=C1CCN(c2cccc(C(F)(F)F)c2)N1 [BW540C, reference compound]",ED50 LTB4,"LTB4; p.o., inflammatory mediator release, 10 min",30 mg/kg
same,ED50 TxB2,TxB2,19 mg/kg
